{
  "source": "patent US7307101B2",
  "about": "“Use of 20-HETE synthesizing enzyme inhibitors as therapy for cerebral vascular disease” (MCW Research Foundation, Inc., priority 2000, dated 2007)",
  "key": {"[1]": {"biological_target": "human 20-HETE synthesizing enzyme", "experiment": "Formation of 20-HETE by human renal microsomes", "type": "biochemical", "details": "read-out: IC50, formation of 20-HETE by human renal microsomes", "experimental": "All reactions were terminated by acidification with 1% formic acid. Equal volume of acetonitrile was added and finally 50% acetonitrile mixtures were subjected to HPLC analysis."}, "[2]": {"biological_target": "20-HETE synthesizing enzyme", "experiment": "20-HETE formation in rat renal microsomes ([3H]-AA, Example 3)", "type": "biochemical", "experimental": "All procedure was carried out at 4° C. Renal cortex was pooled from twenty male SHR rats (6 weeks of age). They were homogenized extensively in lysis buffer (20 mM HEPES, pH 7.4, 1 mM EDTA, 100 μM p-(amidinophenyl)metanesulfonyl fluoride and 250 mM sucrose), and centrifuged at 16,000×g for 10 min. Supernatant was further centrifuged at 16,000×g for 30 min. Soluble fraction was collected and centrifuged at 200,000×g for 30 min. The resulting pellet was suspended in 50 mM MOPS buffer.\nThe reaction was terminated by adding formic acid and acetonitrile to a final concentration of 1% and 50%, respectively."}, "[3]": {"biological_target": "CYP2D6 (Homo sapiens, UniProt P10635)", "sequence (P10635 whole entry)": "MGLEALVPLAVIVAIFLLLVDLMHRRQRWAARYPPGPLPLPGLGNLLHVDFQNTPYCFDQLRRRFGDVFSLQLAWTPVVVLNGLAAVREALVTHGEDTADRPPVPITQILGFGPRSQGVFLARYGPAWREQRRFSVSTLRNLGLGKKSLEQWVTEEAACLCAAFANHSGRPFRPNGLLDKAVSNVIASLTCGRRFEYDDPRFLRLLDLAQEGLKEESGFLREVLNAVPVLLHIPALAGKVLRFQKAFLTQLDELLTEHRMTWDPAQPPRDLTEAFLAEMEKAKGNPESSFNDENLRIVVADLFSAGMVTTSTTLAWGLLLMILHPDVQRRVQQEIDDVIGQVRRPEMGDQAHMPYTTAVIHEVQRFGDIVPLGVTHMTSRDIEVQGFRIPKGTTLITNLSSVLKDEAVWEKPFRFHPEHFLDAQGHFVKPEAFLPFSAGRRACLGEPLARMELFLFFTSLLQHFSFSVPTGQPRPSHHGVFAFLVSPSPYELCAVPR", "experiment": "in vitro", "excerpt": "(§1) Microsomes prepared from the livers of 15 humans was purchased from Nippon Nosanko."}, "[4]": {"biological_target": "CYP3A4 (Homo sapiens, UniProt P08684)", "sequence (P08684 whole entry)": "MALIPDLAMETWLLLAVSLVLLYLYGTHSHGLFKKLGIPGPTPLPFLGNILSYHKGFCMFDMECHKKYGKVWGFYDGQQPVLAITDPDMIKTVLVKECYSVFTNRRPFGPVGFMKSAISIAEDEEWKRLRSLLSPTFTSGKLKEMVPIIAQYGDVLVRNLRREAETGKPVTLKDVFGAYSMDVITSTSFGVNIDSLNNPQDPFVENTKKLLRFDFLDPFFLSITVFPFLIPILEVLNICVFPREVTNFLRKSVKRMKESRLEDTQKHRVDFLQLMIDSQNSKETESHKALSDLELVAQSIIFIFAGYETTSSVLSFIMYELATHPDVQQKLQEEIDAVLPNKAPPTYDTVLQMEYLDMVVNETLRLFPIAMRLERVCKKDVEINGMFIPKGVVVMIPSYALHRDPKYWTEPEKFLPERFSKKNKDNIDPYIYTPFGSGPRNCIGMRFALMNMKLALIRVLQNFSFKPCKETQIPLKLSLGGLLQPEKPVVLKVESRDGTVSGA", "experiment": "in vitro", "details": "microsomes", "excerpt": "as §1"}, "[5]": {"biological_target": "T1, CYP2C19 (Homo sapiens, UniProt P33261)", "T1 construct": "The enzyme/substrate contained buffer, human liver microsomes and the following substrates; tissue Nippon Nosanko; host or cells: pooled human liver microsomes (15 donors)", "T1 sequence (P33261 whole entry)": "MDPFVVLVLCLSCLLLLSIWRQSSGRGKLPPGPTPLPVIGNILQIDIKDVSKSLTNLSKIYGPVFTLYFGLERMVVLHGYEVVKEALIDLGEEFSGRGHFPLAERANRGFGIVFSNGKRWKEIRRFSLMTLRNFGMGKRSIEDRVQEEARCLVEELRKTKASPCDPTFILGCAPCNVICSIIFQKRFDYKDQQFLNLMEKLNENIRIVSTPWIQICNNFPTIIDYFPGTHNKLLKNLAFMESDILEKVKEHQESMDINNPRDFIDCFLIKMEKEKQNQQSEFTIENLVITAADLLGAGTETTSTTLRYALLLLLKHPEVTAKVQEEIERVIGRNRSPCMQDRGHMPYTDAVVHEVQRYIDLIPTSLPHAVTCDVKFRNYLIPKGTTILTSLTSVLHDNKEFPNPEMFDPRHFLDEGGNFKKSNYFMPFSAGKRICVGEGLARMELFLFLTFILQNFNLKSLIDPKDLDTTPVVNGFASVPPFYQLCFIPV", "experiment": "CYP2C19 activity in human liver microsomes", "type": "in vitro ADME", "excerpt": "as §1"}, "[6]": {"system": "rats with SAH", "experiment": "Effect on rCBF after SAH, drug given before SAH", "type": "in vivo, rat", "experimental": "Animals. Experiments were performed on male Sprague-Dawley rats (9-12 weeks old), purchased from Harlan Sprague-Dawley, Inc. (Indianapolis, Ind.). The rats were housed in an Animal Care Facility at the Medical College of Wisconsin, which is approved by the American Association for the Accreditation of Laboratory Animal Care. All protocols involving animals received approval by the Animal Care Committee of the Medical College of Wisconsin.\n(§2) Surgical preparation. Rats were anesthetized with ketamine (Ketaject® 20 mg/kg i.m.) and thiobutabarbital sodium (Inactin® 50 mg/kg i.p.). A cannula was placed in the trachea and the rats were artificially ventilated using a small animal ventilator (SAR-830, CWE, Inc., Ardmore, Pa.) with a mixture of 30% O2 in N2. The femoral vein was cannulated for the infusion of drug and the rats received an i.v. infusion of 0.9% NaCl solution at a rate of […] to replace fluid losses. The femoral artery was cannulated for measurement of mean arterial pressure (MAP) and arterial blood gases. Endtidal partial pressure of carbon dioxide (pCO2) was controlled at 38 mmHg by adjusting the minute ventilation according to the reading of an CO2 analyzer (Capstar-100 IITC, Inc., Woodland Hills, Calif.). Blood samples were collected at the beginning and end of the experiment and analyzed using a blood gas analyzer (ABL 300, Radiometer, Copenhagen, Denmark) to validate the endtidal pCO2 readings. Anesthesia was maintained by administering additional amounts of thiobutabarbital (8 mg/kg i.v.) as needed. Rectal body temperature was maintained at 37±1° C.\nInduction of SAH and measurement of cerebral blood flow. SAH was induced by injection of 0.3 ml autologous arterial blood into the Cisterna Magna using a modification of a posterior cranio-cervical approach of a model of SAH. Delgado T J et al., Stroke 16: 595-602 (1985); Solomon R A et al., Stroke 16: 58-64 (1985). The head of the rat was placed in a stereotactic head holder and the atlanto-occipital membrane was exposed by bluntly separating the overlying neck muscles in the midline. The occipital bone and the atlas were visualized. A 30 gauge needle attached to PE-10 was inserted using a stereomicroscope into the Cistema Magna by penetrating the atlanto-occipital membrane. Then, 0.3 ml of freshly drawn unheparinized arterial blood was injected into the Cistema Magna at a rate of 35 μl/min using a syringe pump. This created a massive SAH that was confirmed in all rats at autopsy. Blood was found overlying the cerebello-medullary junction posteriorly and around the basal artery and the vessels of the Circle of Willis.\nCerebral blood flow (CBF) was continuously measured using laser Doppler flowmetry through a thinned cranial window. […] A PF 103 laser Doppler flow (LDF) probe was positioned over the cranial window and CBF was monitored using a PF-3 laser Doppler flowmeter (Perimed, Stockholm, Sweden).\nOther animals received 17-ODYA (1.5 nmol) or vehicle in a volume of 50 μl that was injected directly into the Cistema Magna using a micromanipulator and a 30 gauge needle. The CBF recorded over the last 5 minutes of the control period immediately before initiation of SAH served as the control value. […] CBF was recorded for 2 min intervals at 10, 20, 30, 60, 90 and 120 minutes after completion of the injection of the blood. The CBF data are expressed as percentage change from control."}, "[7]": {"biological_target": "CYP2C9 (Homo sapiens, UniProt P11712)", "sequence (P11712 whole entry)": "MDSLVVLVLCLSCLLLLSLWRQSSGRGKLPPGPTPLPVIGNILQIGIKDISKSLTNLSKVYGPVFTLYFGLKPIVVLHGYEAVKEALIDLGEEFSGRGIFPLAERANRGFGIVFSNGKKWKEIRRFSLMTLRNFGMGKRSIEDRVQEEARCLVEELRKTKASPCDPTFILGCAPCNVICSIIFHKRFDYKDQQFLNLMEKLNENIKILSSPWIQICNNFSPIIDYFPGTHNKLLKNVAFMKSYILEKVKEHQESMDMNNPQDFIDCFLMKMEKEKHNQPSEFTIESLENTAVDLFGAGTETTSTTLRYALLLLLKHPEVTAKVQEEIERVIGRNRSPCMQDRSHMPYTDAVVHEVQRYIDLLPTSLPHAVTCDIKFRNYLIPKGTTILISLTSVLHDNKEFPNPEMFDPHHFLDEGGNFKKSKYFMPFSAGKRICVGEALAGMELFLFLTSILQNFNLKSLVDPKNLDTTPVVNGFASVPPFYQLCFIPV", "experiment": "in vitro", "excerpt": "as §1"}, "[8]": {"experiment": "Physiological parameters (MAP, endtidal pCO2) during the SAH experiment", "type": "in vivo, rat", "details": "rats, any time", "experimental": "as §2"}, "[9]": {"system": "20-HETE in CSF", "experiment": "20-HETE concentration in CSF after SAH", "type": "in vivo, rat", "details": "rats, 2 hr after SAH, drug given prior to SAH", "description": "Measurement of 20-HETE in CSF. At the end of each experiment, CSF was collected from the Cisterna Magna using a 1 ml syringe and a 30 gauge needle. […] 20-HETE concentration in CSF was measured using a new fluorescent HPLC assay that was recently described. […] Briefly, 50 ng of an internal standard 20-hydroxyeicosa-6(Z), 15(Z)-dienoic acid (WIT-002) was added to the CSF samples (50 μl). The samples were extracted with 1 mL of ethyl acetate, the extract was dried under argon and the lipid fraction was purified on a Sep-Pak Vac™ column (cat. no. WAT054955, Waters Corporation, Milford, Mass.). […] N,N-diisopropylethylamine (10 μl) was added to catalyze the reaction. The sample was reacted for 30 min at room temperature. […] The amount of 20-HETE in a sample was determined by comparing the area of the 20-HETE peak to that of the internal standard."}, "[10]": {"system": "20-HETE formation", "details": "read-out: IC50 for inhibition of 20-HETE formation; cited from earlier work"}, "[11]": {"details": "given systemically; cited from earlier work"}, "[12]": {"system": "cerebral arteries", "details": "read-out: EC50, constriction of cerebral arteries; cited from earlier work"}, "[13]": {"system": "cerebral blood flow", "details": "intracerebroventricular injection; cited from earlier work"}, "[14]": {"details": "human, microsomes, % Inhibition (duplicate) CYP2D6"}, "[15]": {"details": "positive control, concentration not given"}, "[16]": {"details": "only at very high concentrations"}},
  "note": "Several values for one entry are separate records, joined by “and”; a condition that tells them apart may be missing. Equal entries are not always repeated.",
  "data": [
    {"smiles": "Nn1nnc2ccccc21", "note": "[1-ABT, 1-aminobenzotriazole]", "values": [
      {"measurement": "IC50", "setting": "[1]", "result": "38500 ± 14900", "unit": "nM"},
      {"measurement": "IC50, formation of both EETs and 20-HETE", "setting": "[2]; SHR rat renal microsomes, nonselective inhibitor", "result": "approximately 20 μg/ml"},
      {"measurement": "IC50", "setting": "[2]; read-out: IC50, formation of both EETs and 20-HETE (molar), SHR rat renal microsomes, nonselective inhibitor", "result": "~150000", "unit": "nM"},
      {"measurement": "% Inhibition (duplicate) CYP2D6", "setting": "[3]; human, microsomes, 100 µM", "result": 42, "unit": "%"},
      {"measurement": "inhibition at 100 µM", "setting": "[3]; [14]", "result": "40 to 80", "unit": "%"},
      {"measurement": "% Inhibition (duplicate) CYP3A4", "setting": "[4]; 100 µM", "result": 81, "unit": "%"},
      {"measurement": "% Inhibition (duplicate) CYP2C19", "setting": "[5]; inhibitor 100 μM, 100 µM", "result": "40-80% and 75%"}
    ]},
    {"smiles": "C#CCCCCCCCCCCCCCCCC(=O)O", "note": "[17-ODYA, 17-Octadecynoic acid]", "values": [
      {"measurement": "IC50", "setting": "[1]", "result": "1800 ± 800", "unit": "nM"},
      {"measurement": "fall in cerebral blood flow following SAH", "setting": "[6]; 1.5 nmol into the Cisterna Magna of rats", "result": "completely blocked"},
      {"measurement": "reduction of the initial fall in rCBF at 10 min", "setting": "[6]; rats pretreated before SAH, HET0016 10 mg/kg i.v. 30 min prior, 17-ODYA 1.5 nmol intrathecally", "result": "about 40%"},
      {"measurement": "time after induction of SAH within which rCBF recovered fully to values not different from control", "setting": "[6]; rats pretreated before SAH, HET0016 10 mg/kg i.v., 17-ODYA 1.5 nmol intrathecally", "result": "≤ 90", "unit": "min"},
      {"measurement": "% Inhibition (duplicate) CYP2C9", "setting": "[7]; human, microsomes, 10 µM", "result": 23, "unit": "%"},
      {"measurement": "inhibition at 10 µM", "setting": "[7]; human, microsomes, % Inhibition (duplicate) CYP2C9", "result": "20 to 30", "unit": "%"},
      {"measurement": "inhibition at 10 µM", "setting": "[3]; [14]", "result": -3, "unit": "%"},
      {"measurement": "% Inhibition (duplicate) CYP3A4", "setting": "[4]; 10 µM", "result": 29, "unit": "%"},
      {"measurement": "inhibition at 10 µM", "setting": "[4]; % Inhibition (duplicate) CYP3A4", "result": "20 to 30", "unit": "%"},
      {"measurement": "MAP (blood pressure) versus vehicle", "setting": "[8]", "result": "no difference"},
      {"measurement": "endtidal pCO2 versus vehicle", "setting": "[8]", "result": "no significant differences"},
      {"measurement": "concentration of 20-HETE in the CSF versus vehicle", "setting": "[9]", "result": "significantly lower concentration"},
      {"measurement": "inhibition at 10 µM", "setting": "[5]; human, human liver microsomes, probe 14C-(S)-mephenyloin (4′-hydroxylation), inhibitor 10 μM, read-out: % Inhibition (duplicate) CYP2C19", "result": 10, "unit": "%"},
      {"measurement": "IC50", "setting": "[10]", "result": 1000, "unit": "nM"},
      {"measurement": "crossing of the blood brain barrier", "setting": "[11]", "result": "does not cross the blood brain barrier"}
    ]},
    {"smiles": "O=C(O)CCCC=CCC=CCC=CCC=CCCCCCO", "note": "[20-HETE, 20-hydroxyeicosetetraenoic acid]", "values": [
      {"measurement": "EC50", "setting": "[12]", "result": "< 10", "unit": "nM"}
    ]},
    {"smiles": "CS(=O)(=O)NC(=O)CCCCCCCCCC=C(Br)Br", "note": "[DDMS]", "values": [
      {"measurement": "effect on baseline cerebral blood flow", "setting": "[13]", "result": "no effect"},
      {"measurement": "IC50", "setting": "[10]", "result": 3000, "unit": "nM"},
      {"measurement": "crossing of the blood brain barrier", "setting": "[11]", "result": "does not cross the blood-brain barrier"}
    ]},
    {"smiles": "C=C[C@H]1C[N@@]2CC[C@H]1C[C@@H]2[C@@H](O)c1ccnc2ccc(OC)cc12", "note": "[Quinidine]", "values": [
      {"measurement": "% Inhibition (duplicate) CYP2D6", "setting": "[3]; [15]", "result": 91, "unit": "%"}
    ]},
    {"smiles": "Clc1ccc(COC(Cn2ccnc2)c2ccc(Cl)cc2Cl)c(Cl)c1", "note": "(stereo not drawn) [miconazole]", "values": [
      {"measurement": "concentrations at which the formation of 20-HETE was inhibited", "setting": "[2]; [16]", "result": "10 to 20", "unit": "µg/mL"},
      {"measurement": "concentrations at which the formation of 20-HETE was inhibited (molar)", "setting": "[2]; [16]", "result": "21 to 42", "unit": "µM"}
    ]},
    {"smiles": "Nc1ccc(S(=O)(=O)Nc2ccnn2-c2ccccc2)cc1", "note": "[sulfaphenazol]", "values": [
      {"measurement": "% Inhibition (duplicate) CYP2C9", "setting": "[7]; [15]", "result": 91, "unit": "%"}
    ]}
  ]
}
